In patent publication US8815565B2, “Method for culturing mycoplasma contamination-free cells and method for removing mycoplasma contamination of cells” (Cellsafe Co., Ltd., priority 2010, dated 2014):

Tested on: cells contaminated with mycoplasma
Assay: Mycoplasma removal potential when amphidinol derivative was used, by filter pore size
Type: cell-based
Experimental: A medium was removed from the cell culture (80 to 90% confluent) which was cultured in the T-75 culture flask in (1) of Example 3 and which was confirmed as being contaminated with mycoplasma. The obtained cells were washed twice with 10 ml of a phosphate buffer solution. 2 ml of trypsin-EDTA was added thereto, followed by incubating at a temperature of 37° C. for 10 minutes to detach cells. Then, DMEM (GIBCO BRL, Cat. No. 12800-058) was added thereto to obtain 10 ml of cell suspension, which was then transferred to a 15 ml conical tube. The cell suspension in the conical tube was centrifuged at a rate of 1,500 rpm for 5 minutes, and then the supernatant was removed therefrom. 10 ml of 5% FBS-containing DMEM (GIBCO BRL, Cat. No. 12800-058) was added to the conical tube to obtain a cell suspension. The obtained cell suspension was divided into two groups each having an amount of 5 ml. […] The cell suspensions of the group 1 and 2 were diluted with 5% FBS-including DMEM (GIBCO BRL, Cat. No. 12800-058) to adjust the cell concentration to about 2.5×10^5 cells/ml, respectively. 4 ml of each cell suspension of the group 1 and 2 (each having about 2.5×10^5 cells/ml of cells) was transferred to a 15 ml tube, and then […] of 5% FBS-containing DMEM (GIBCO BRL, Cat. No. 12800-058) was added thereto. […] 10 ml of each of the obtained mixtures was transferred to a T-75 culture flask, followed by culturing for 3 days in a CO2 incubator for 3 days (passage 1 sub-culturing).
The medium was removed from the cell culture (80 to 90% confluent) which was cultured in the T-75 culture flask for 3 days. The obtained cells were washed twice with 10 ml of a phosphate buffer solution. 2 ml of trypsin-EDTA was added thereto, followed by incubating at a temperature of 37° C. for 10 minutes to detach the cells. Then, DMEM (GIBCO BRL, Cat. No. 12800-058) was added thereto to obtain 10 ml of cell suspension, which was then transferred to a 15 ml conical tube. The cell suspension in the conical tube was centrifuged at a rate of 1,500 rpm for 5 minutes, and then the supernatant was removed therefrom. 10 ml of 10% FBS-containing DMEM (GIBCO BRL, Cat. No. 12800-058) was added to the conical tube to obtain a cell suspension. The obtained cell suspension was divided into two groups each having an amount of 5 ml. […] The cell suspensions of the group 1 and 2 were diluted with 10% FBS-including DMEM (GIBCO BRL, Cat. No. 12800-058) to adjust the cell concentration to about 2.5×10^5 cells/ml, respectively. 4 ml of each cell suspension of the group 1 and 2 (each having about 2.5×10^5 cells/ml of cells) was transferred to a 15 ml tube, and then 5.5 ml of 10% FBS-containing DMEM (GIBCO BRL, Cat. No. 12800-058) was added thereto. […] 10 ml of each of the obtained mixtures was transferred to a T-75 culture flask, followed by culturing […] (passage 2 sub-culturing). The sub-culturing was performed twice more, and thus, passage 4 sub-culturing steps in total were performed.
Mycoplasma contamination was measured regarding the respective cells of the additional passages 1, 3, 6, 10, 12, 15, and 33 after the initial passage 4 treatments. Whether mycoplasma was removed was measured with a mycoplasma diagnosis kit (Promokine, Germany; Cellsafe Co., Ltd., Korea) according to the enclosed protocol. The resulting PCR products were electrophoresed on a 1% agarose gel to measure the mycoplasma contamination.
Sub-culturing was performed in the same manner as in (1), except that 2 μg/ml of the compound of Formula 3 was used as a reagent for removing mycoplasma , and the filters (Millipore) having pore sizes of 11, 20, 30, 60, 80, 90, and 100 μm and the filters (Falcon) having pore sizes of 40, 50, and 70 μm were used, and then, the mycoplasma contamination was measured.

Measured: mycoplasma contamination

C=C/C=C/CC/C=C/C=C/C=C/CC/C=C/C(O)C(O)C1OC(C(O)C(O)C(=C)CCC(O)C2CC(O)C(O)C(C(O)C(O)/C=C(\C)CCC(O)CC(O)C(O)C(C)CC(O)C(O)CCCCCC(O)CCCC(O)/C=C/CC(O)/C=C/CC(O)CO)O2)CC(O)C1O (centres unmarked) [AM3, amphidinol 3]
completely removed: filter having a pore size of 10 to 100 μM
−: 2 μg/ml, Pore size 11 μm, Passage 1 after treatment | 2 μg/ml, Pore size 11 μm, Passage 3 after treatment | 2 μg/ml, Pore size 11 μm, Passage 6 after treatment | 2 μg/ml, Pore size 11 μm, Passage 10 after treatment | 2 μg/ml, Pore size 11 μm, Passage 12 after treatment | 2 μg/ml, Pore size 11 μm, Passage 15 after treatment | 2 μg/ml, Pore size 11 μm, Passage 33 after treatment | 2 μg/ml, Pore size 20 μm, Passage 1 after treatment | 2 μg/ml, Pore size 20 μm, Passage 3 after treatment | 2 μg/ml, Pore size 20 μm, Passage 6 after treatment | 2 μg/ml, Pore size 20 μm, Passage 10 after treatment | 2 μg/ml, Pore size 20 μm, Passage 12 after treatment | 2 μg/ml, Pore size 20 μm, Passage 15 after treatment | 2 μg/ml, Pore size 20 μm, Passage 33 after treatment | 2 μg/ml, Pore size 30 μm, Passage 1 after treatment | 2 μg/ml, Pore size 30 μm, Passage 3 after treatment | 2 μg/ml, Pore size 30 μm, Passage 6 after treatment | 2 μg/ml, Pore size 30 μm, Passage 10 after treatment | 2 μg/ml, Pore size 30 μm, Passage 12 after treatment | 2 μg/ml, Pore size 30 μm, Passage 15 after treatment | 2 μg/ml, Pore size 30 μm, Passage 33 after treatment | 2 μg/ml, Pore size 40 μm, Passage 1 after treatment | 2 μg/ml, Pore size 40 μm, Passage 3 after treatment | 2 μg/ml, Pore size 40 μm, Passage 6 after treatment | 2 μg/ml, Pore size 40 μm, Passage 10 after treatment | 2 μg/ml, Pore size 40 μm, Passage 12 after treatment | 2 μg/ml, Pore size 40 μm, Passage 15 after treatment | 2 μg/ml, Pore size 40 μm, Passage 33 after treatment | 2 μg/ml, Pore size 50 μm, Passage 1 after treatment | 2 μg/ml, Pore size 50 μm, Passage 3 after treatment | 2 μg/ml, Pore size 50 μm, Passage 6 after treatment | 2 μg/ml, Pore size 50 μm, Passage 10 after treatment | 2 μg/ml, Pore size 50 μm, Passage 12 after treatment | 2 μg/ml, Pore size 50 μm, Passage 15 after treatment | 2 μg/ml, Pore size 50 μm, Passage 33 after treatment | 2 μg/ml, Pore size 60 μm, Passage 1 after treatment | 2 μg/ml, Pore size 60 μm, Passage 3 after treatment | 2 μg/ml, Pore size 60 μm, Passage 6 after treatment | 2 μg/ml, Pore size 60 μm, Passage 10 after treatment | 2 μg/ml, Pore size 60 μm, Passage 12 after treatment | 2 μg/ml, Pore size 60 μm, Passage 15 after treatment | 2 μg/ml, Pore size 60 μm, Passage 33 after treatment | 2 μg/ml, Pore size 70 μm, Passage 1 after treatment | 2 μg/ml, Pore size 70 μm, Passage 3 after treatment | 2 μg/ml, Pore size 70 μm, Passage 6 after treatment | 2 μg/ml, Pore size 70 μm, Passage 10 after treatment | 2 μg/ml, Pore size 70 μm, Passage 12 after treatment | 2 μg/ml, Pore size 70 μm, Passage 15 after treatment | 2 μg/ml, Pore size 70 μm, Passage 33 after treatment | 2 μg/ml, Pore size 80 μm, Passage 1 after treatment | 2 μg/ml, Pore size 80 μm, Passage 3 after treatment | 2 μg/ml, Pore size 80 μm, Passage 6 after treatment | 2 μg/ml, Pore size 80 μm, Passage 10 after treatment | 2 μg/ml, Pore size 80 μm, Passage 12 after treatment | 2 μg/ml, Pore size 80 μm, Passage 15 after treatment | 2 μg/ml, Pore size 80 μm, Passage 33 after treatment | 2 μg/ml, Pore size 90 μm, Passage 1 after treatment | 2 μg/ml, Pore size 90 μm, Passage 3 after treatment | 2 μg/ml, Pore size 90 μm, Passage 6 after treatment | 2 μg/ml, Pore size 90 μm, Passage 10 after treatment | 2 μg/ml, Pore size 90 μm, Passage 12 after treatment | 2 μg/ml, Pore size 90 μm, Passage 15 after treatment | 2 μg/ml, Pore size 90 μm, Passage 33 after treatment | 2 μg/ml, Pore size 100 μm, Passage 1 after treatment | 2 μg/ml, Pore size 100 μm, Passage 3 after treatment | 2 μg/ml, Pore size 100 μm, Passage 6 after treatment | 2 μg/ml, Pore size 100 μm, Passage 10 after treatment | 2 μg/ml, Pore size 100 μm, Passage 12 after treatment | 2 μg/ml, Pore size 100 μm, Passage 15 after treatment | 2 μg/ml, Pore size 100 μm, Passage 33 after treatment
